Experimental data as given in patent US9738634B2, “Heterocyclic amide compound and herbicide” (SYNGENTA PARTICIPATIONS AG, priority 2013, dated 2017).

Tests used:
Assay type in all cases: in vivo
[1] = test system: barnyard grass; assay: Test Example 1: weedkilling efficacy, preemergent weed treatment in the submerged state; A: barnyard grass; conditions: treatment dosage 252 g/ha
Procedure, shortened: (§1)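 Pre-emergence paddy test: weed seeds sown in submerged alluvial soil (4 cm water), 2.5-leaf rice transplanted, water-diluted emulsion applied to water surface at sowing at stated g/ha. Scored at 3 weeks, greenhouse 25–30 °C.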

[2] = test system: bulrush; assay: Test Example 1: weedkilling efficacy, preemergent weed treatment in the submerged state; B: bulrush; conditions: treatment dosage 252 g/ha
Procedure, shortened: as §1

[3] = test system: oval-leafed pondweed; assay: Test Example 1: weedkilling efficacy, preemergent weed treatment in the submerged state; C: oval-leafed pondweed; conditions: treatment dosage 252 g/ha
Procedure, shortened: as §1

[4] = test system: transplanted rice; assay: Test Example 1: preemergent weed treatment in the submerged state, effect on crop; a: transplanted rice; conditions: treatment dosage 252 g/ha
Procedure, shortened: as §1

[5] = test system: barnyard grass; assay: Test Example 2: weedkilling efficacy, growth period weed treatment in the submerged state; A: barnyard grass; conditions: treatment dosage 252 g/ha
Procedure, shortened: (§2)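 Seedlings at 1-2 leaves in 4 cm-deep submerged alluvial soil received emulsion formulations on the water surface, dosed per hectare; effects were judged 3 weeks on.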

[6] = test system: bulrush; assay: Test Example 2: weedkilling efficacy, growth period weed treatment in the submerged state; B: bulrush; conditions: treatment dosage 252 g/ha
Procedure, shortened: as §2

[7] = test system: oval-leafed pondweed; assay: Test Example 2: weedkilling efficacy, growth period weed treatment in the submerged state; C: oval-leafed pondweed; conditions: treatment dosage 252 g/ha
Procedure, shortened: as §2

[8] = test system: crabgrass; assay: Test Example 3: weedkilling efficacy through soil treatment; D: crabgrass; conditions: treatment dosage 315 g/ha
Procedure, shortened: (§3)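 Crop and weed responses were judged three weeks after a uniform surface spray of the water-diluted emulsion at the given g/ha rate. Seeds sat beneath about 1.5 cm of sterilized diluvial soil, and boxes stood in a greenhouse at 25 to 30° C.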

[9] = test system: green foxtail; assay: Test Example 3: weedkilling efficacy through soil treatment; E: green foxtail; conditions: treatment dosage 315 g/ha
Procedure, shortened: as §3

[10] = test system: wild oat; assay: Test Example 3: weedkilling efficacy through soil treatment; G: wild oat; conditions: treatment dosage 315 g/ha
Procedure, shortened: as §3

[11] = test system: black-grass; assay: Test Example 3: weedkilling efficacy through soil treatment; H: black-grass; conditions: treatment dosage 315 g/ha
Procedure, shortened: as §3

[12] = test system: Italian ryegrass; assay: Test Example 3: weedkilling efficacy through soil treatment; I: Italian ryegrass; conditions: treatment dosage 315 g/ha
Procedure, shortened: as §3

[13] = test system: Indian mallow; assay: Test Example 3: weedkilling efficacy through soil treatment; K: Indian mallow; conditions: treatment dosage 315 g/ha
Procedure, shortened: as §3

[14] = test system: redroot pigweed; assay: Test Example 3: weedkilling efficacy through soil treatment; L: redroot pigweed; conditions: treatment dosage 315 g/ha
Procedure, shortened: as §3

[15] = test system: fig-leafed goosefoot; assay: Test Example 3: weedkilling efficacy through soil treatment; M: fig-leafed goosefoot; conditions: treatment dosage 315 g/ha
Procedure, shortened: as §3

[16] = test system: chickweed; assay: Test Example 3: weedkilling efficacy through soil treatment; N: chickweed; conditions: treatment dosage 315 g/ha
Procedure, shortened: as §3

[17] = test system: catchweed; assay: Test Example 3: weedkilling efficacy through soil treatment; O: catchweed; conditions: treatment dosage 315 g/ha
Procedure, shortened: as §3

[18] = test system: birds-eye speedwell; assay: Test Example 3: weedkilling efficacy through soil treatment; p: birds-eye speedwell; conditions: treatment dosage 315 g/ha
Procedure, shortened: as §3

[19] = test system: directly sown rice; assay: Test Example 3: soil treatment, effect on crop; b: directly sown rice; conditions: treatment dosage 315 g/ha
Procedure, shortened: as §3

[20] = test system: corn; assay: Test Example 3: soil treatment, effect on crop; c: corn; conditions: treatment dosage 315 g/ha
Procedure, shortened: as §3

[21] = test system: soybean; assay: Test Example 3: soil treatment, effect on crop; d: soybean; conditions: treatment dosage 315 g/ha
Procedure, shortened: as §3

[22] = test system: wheat; assay: Test Example 3: soil treatment, effect on crop; e: wheat; conditions: treatment dosage 315 g/ha
Procedure, shortened: as §3

[23] = test system: beet; assay: Test Example 3: soil treatment, effect on crop; f: beet; conditions: treatment dosage 315 g/ha
Procedure, shortened: as §3

[24] = test system: crabgrass; assay: Test Example 4: weedkilling efficacy by foliar treatment; D: crabgrass; conditions: treatment dosage 315 g/ha
Procedure, shortened: (§4)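 Seeds are spot-sown into sterilized diluvial soil and covered with about 1.5 cm of soil. After 14 days' greenhouse growth at 25 to 30° C, plants are sprayed on stems and leaves with diluted emulsion at the stated g/ha rate, then scored at 3 weeks.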

[25] = test system: green foxtail; assay: Test Example 4: weedkilling efficacy by foliar treatment; E: green foxtail; conditions: treatment dosage 315 g/ha
Procedure, shortened: as §4

[26] = test system: wild oat; assay: Test Example 4: weedkilling efficacy by foliar treatment; G: wild oat; conditions: treatment dosage 315 g/ha
Procedure, shortened: as §4

[27] = test system: black-grass; assay: Test Example 4: weedkilling efficacy by foliar treatment; H: black-grass; conditions: treatment dosage 315 g/ha
Procedure, shortened: as §4

[28] = test system: Italian ryegrass; assay: Test Example 4: weedkilling efficacy by foliar treatment; I: Italian ryegrass; conditions: treatment dosage 315 g/ha
Procedure, shortened: as §4

[29] = test system: Indian mallow; assay: Test Example 4: weedkilling efficacy by foliar treatment; K: Indian mallow; conditions: treatment dosage 315 g/ha
Procedure, shortened: as §4

[30] = test system: redroot pigweed; assay: Test Example 4: weedkilling efficacy by foliar treatment; L: redroot pigweed; conditions: treatment dosage 315 g/ha
Procedure, shortened: as §4

[31] = test system: fig-leafed goosefoot; assay: Test Example 4: weedkilling efficacy by foliar treatment; M: fig-leafed goosefoot; conditions: treatment dosage 315 g/ha
Procedure, shortened: as §4

[32] = test system: chickweed; assay: Test Example 4: weedkilling efficacy by foliar treatment; N: chickweed; conditions: treatment dosage 315 g/ha
Procedure, shortened: as §4

[33] = test system: catchweed; assay: Test Example 4: weedkilling efficacy by foliar treatment; O: catchweed; conditions: treatment dosage 315 g/ha
Procedure, shortened: as §4

[34] = test system: birds-eye speedwell; assay: Test Example 4: weedkilling efficacy by foliar treatment; p: birds-eye speedwell; conditions: treatment dosage 315 g/ha
Procedure, shortened: as §4

[35] = test system: directly sown rice; assay: Test Example 4: foliar treatment, effect on crop; b: directly sown rice; conditions: treatment dosage 315 g/ha
Procedure, shortened: as §4

[36] = test system: corn; assay: Test Example 4: foliar treatment, effect on crop; c: corn; conditions: treatment dosage 315 g/ha
Procedure, shortened: as §4

[37] = test system: soybean; assay: Test Example 4: foliar treatment, effect on crop; d: soybean; conditions: treatment dosage 315 g/ha
Procedure, shortened: as §4

[38] = test system: wheat; assay: Test Example 4: foliar treatment, effect on crop; e: wheat; conditions: treatment dosage 315 g/ha
Procedure, shortened: as §4

[39] = test system: beet; assay: Test Example 4: foliar treatment, effect on crop; f: beet; conditions: treatment dosage 315 g/ha
Procedure, shortened: as §4

Compound	A (barnyard grass) weedkilling efficacy grade [1]	B (bulrush) weedkilling efficacy grade [2]	C (oval-leafed pondweed) weedkilling efficacy grade [3]	a (transplanted rice) effect on crop grade [4]	A (barnyard grass) weedkilling efficacy grade [5]	B (bulrush) weedkilling efficacy grade [6]	C (oval-leafed pondweed) weedkilling efficacy grade [7]	D (crabgrass) weedkilling efficacy grade [8]	E (green foxtail) weedkilling efficacy grade [9]	G (wild oat) weedkilling efficacy grade [10]	H (black-grass) weedkilling efficacy grade [11]	I (Italian ryegrass) weedkilling efficacy grade [12]	K (Indian mallow) weedkilling efficacy grade [13]	L (redroot pigweed) weedkilling efficacy grade [14]	M (fig-leafed goosefoot) weedkilling efficacy grade [15]	N (chickweed) weedkilling efficacy grade [16]	O (catchweed) weedkilling efficacy grade [17]	P (birds-eye speedwell) weedkilling efficacy grade [18]	b (directly sown rice) effect on crop grade [19]	c (corn) effect on crop grade [20]	other results
CC1=C(c2ccccc2)C(=O)N(C(C)(C)C(=O)Nc2nnc(C(F)(F)F)s2)CO1 [B-1-10]	5 (weed kill ratio 90% or more, (practically complete withering))	5 (weed kill ratio 90% or more, (practically complete withering))	5 (weed kill ratio 90% or more, (practically complete withering))	3 (weed kill ratio 40% or more, less than 70%)	4 (weed kill ratio 70% or more, less than 90%)	5 (weed kill ratio 90% or more, (practically complete withering))	5 (weed kill ratio 90% or more, (practically complete withering))	5 (weed kill ratio 90% or more, (practically complete withering))	5 (weed kill ratio 90% or more, (practically complete withering))	4 (weed kill ratio 70% or more, less than 90%)	5 (weed kill ratio 90% or more, (practically complete withering))	3 (weed kill ratio 40% or more, less than 70%)	3 (weed kill ratio 40% or more, less than 70%)	3 (weed kill ratio 40% or more, less than 70%)	3 (weed kill ratio 40% or more, less than 70%)	2 (weed kill ratio 20% or more, less than 40%)	0 (weed kill ratio 5% or less (practically no effect))	4 (weed kill ratio 70% or more, less than 90%)	5 (weed kill ratio 90% or more, (practically complete withering))	3 (weed kill ratio 40% or more, less than 70%)	d (soybean) effect on crop grade [21]: 0 (weed kill ratio 5% or less (practically no effect)); e (wheat) effect on crop grade [22]: 0 (weed kill ratio 5% or less (practically no effect)); f (beet) effect on crop grade [23]: 3 (weed kill ratio 40% or more, less than 70%); D (crabgrass) weedkilling efficacy grade [24]: 5 (weed kill ratio 90% or more, (practically complete withering)); E (green foxtail) weedkilling efficacy grade [25]: 5 (weed kill ratio 90% or more, (practically complete withering)); G (wild oat) weedkilling efficacy grade [26]: 2 (weed kill ratio 20% or more, less than 40%); H (black-grass) weedkilling efficacy grade [27]: 4 (weed kill ratio 70% or more, less than 90%); I (Italian ryegrass) weedkilling efficacy grade [28]: 0 (weed kill ratio 5% or less (practically no effect)); K (Indian mallow) weedkilling efficacy grade [29]: 4 (weed kill ratio 70% or more, less than 90%); L (redroot pigweed) weedkilling efficacy grade [30]: 2 (weed kill ratio 20% or more, less than 40%); M (fig-leafed goosefoot) weedkilling efficacy grade [31]: 3 (weed kill ratio 40% or more, less than 70%); N (chickweed) weedkilling efficacy grade [32]: 2 (weed kill ratio 20% or more, less than 40%); O (catchweed) weedkilling efficacy grade [33]: 2 (weed kill ratio 20% or more, less than 40%); P (birds-eye speedwell) weedkilling efficacy grade [34]: 4 (weed kill ratio 70% or more, less than 90%); b (directly sown rice) effect on crop grade [35]: 5 (weed kill ratio 90% or more, (practically complete withering)); c (corn) effect on crop grade [36]: 4 (weed kill ratio 70% or more, less than 90%); d (soybean) effect on crop grade [37]: 2 (weed kill ratio 20% or more, less than 40%); e (wheat) effect on crop grade [38]: 0 (weed kill ratio 5% or less (practically no effect)); f (beet) effect on crop grade [39]: 2 (weed kill ratio 20% or more, less than 40%)
CC1=C(c2cccnc2F)C(=O)N(C(C)(C)C(=O)Nc2cc(Cl)ccn2)CO1 [B-2-07]	5 (weed kill ratio 90% or more, (practically complete withering))	5 (weed kill ratio 90% or more, (practically complete withering))	5 (weed kill ratio 90% or more, (practically complete withering))	0 (weed kill ratio 5% or less (practically no effect))	3 (weed kill ratio 40% or more, less than 70%)	5 (weed kill ratio 90% or more, (practically complete withering))	2 (weed kill ratio 20% or more, less than 40%)	5 (weed kill ratio 90% or more, (practically complete withering))	5 (weed kill ratio 90% or more, (practically complete withering))	3 (weed kill ratio 40% or more, less than 70%)	5 (weed kill ratio 90% or more, (practically complete withering))	5 (weed kill ratio 90% or more, (practically complete withering))	2 (weed kill ratio 20% or more, less than 40%)	3 (weed kill ratio 40% or more, less than 70%)	3 (weed kill ratio 40% or more, less than 70%)	3 (weed kill ratio 40% or more, less than 70%)	3 (weed kill ratio 40% or more, less than 70%)	5 (weed kill ratio 90% or more, (practically complete withering))	4 (weed kill ratio 70% or more, less than 90%)	3 (weed kill ratio 40% or more, less than 70%)	d (soybean) effect on crop grade [21]: 1 (weed kill ratio 5% or more, less than 20%); e (wheat) effect on crop grade [22]: 0 (weed kill ratio 5% or less (practically no effect)); f (beet) effect on crop grade [23]: 1 (weed kill ratio 5% or more, less than 20%); D (crabgrass) weedkilling efficacy grade [24]: 5 (weed kill ratio 90% or more, (practically complete withering)); E (green foxtail) weedkilling efficacy grade [25]: 4 (weed kill ratio 70% or more, less than 90%); G (wild oat) weedkilling efficacy grade [26]: 3 (weed kill ratio 40% or more, less than 70%); H (black-grass) weedkilling efficacy grade [27]: 4 (weed kill ratio 70% or more, less than 90%); I (Italian ryegrass) weedkilling efficacy grade [28]: 5 (weed kill ratio 90% or more, (practically complete withering)); K (Indian mallow) weedkilling efficacy grade [29]: 1 (weed kill ratio 5% or more, less than 20%); L (redroot pigweed) weedkilling efficacy grade [30]: 2 (weed kill ratio 20% or more, less than 40%); M (fig-leafed goosefoot) weedkilling efficacy grade [31]: 3 (weed kill ratio 40% or more, less than 70%); N (chickweed) weedkilling efficacy grade [32]: 2 (weed kill ratio 20% or more, less than 40%); O (catchweed) weedkilling efficacy grade [33]: 2 (weed kill ratio 20% or more, less than 40%); P (birds-eye speedwell) weedkilling efficacy grade [34]: 3 (weed kill ratio 40% or more, less than 70%); b (directly sown rice) effect on crop grade [35]: 4 (weed kill ratio 70% or more, less than 90%); c (corn) effect on crop grade [36]: 1 (weed kill ratio 5% or more, less than 20%); d (soybean) effect on crop grade [37]: 3 (weed kill ratio 40% or more, less than 70%); e (wheat) effect on crop grade [38]: 0 (weed kill ratio 5% or less (practically no effect)); f (beet) effect on crop grade [39]: 3 (weed kill ratio 40% or more, less than 70%)
